Results published in patent US20260242353A1, “HETEROARYL DERIVATIVES AS DDRs INHIBITORS” (CHIESI FARMACEUTICI S.P.A., priority 2022, published 2026).
Values belong to the compound of their own block, whether it stands above or below them.

What was measured:
DDR2 = target: T1, DDR2 (Homo sapiens, UniProt Q16832); test: LanthaScreen Europium Kinase Binding assay, DDR2; details: 5 nM DDR2, 10 nM Kinase Tracer 178, 1 h at rt; Ki from IC50 by Cheng-Prusoff; read-out: Ki DDR2
T1 construct: purchased Life Technologies
T1 sequence (Q16832 22-855): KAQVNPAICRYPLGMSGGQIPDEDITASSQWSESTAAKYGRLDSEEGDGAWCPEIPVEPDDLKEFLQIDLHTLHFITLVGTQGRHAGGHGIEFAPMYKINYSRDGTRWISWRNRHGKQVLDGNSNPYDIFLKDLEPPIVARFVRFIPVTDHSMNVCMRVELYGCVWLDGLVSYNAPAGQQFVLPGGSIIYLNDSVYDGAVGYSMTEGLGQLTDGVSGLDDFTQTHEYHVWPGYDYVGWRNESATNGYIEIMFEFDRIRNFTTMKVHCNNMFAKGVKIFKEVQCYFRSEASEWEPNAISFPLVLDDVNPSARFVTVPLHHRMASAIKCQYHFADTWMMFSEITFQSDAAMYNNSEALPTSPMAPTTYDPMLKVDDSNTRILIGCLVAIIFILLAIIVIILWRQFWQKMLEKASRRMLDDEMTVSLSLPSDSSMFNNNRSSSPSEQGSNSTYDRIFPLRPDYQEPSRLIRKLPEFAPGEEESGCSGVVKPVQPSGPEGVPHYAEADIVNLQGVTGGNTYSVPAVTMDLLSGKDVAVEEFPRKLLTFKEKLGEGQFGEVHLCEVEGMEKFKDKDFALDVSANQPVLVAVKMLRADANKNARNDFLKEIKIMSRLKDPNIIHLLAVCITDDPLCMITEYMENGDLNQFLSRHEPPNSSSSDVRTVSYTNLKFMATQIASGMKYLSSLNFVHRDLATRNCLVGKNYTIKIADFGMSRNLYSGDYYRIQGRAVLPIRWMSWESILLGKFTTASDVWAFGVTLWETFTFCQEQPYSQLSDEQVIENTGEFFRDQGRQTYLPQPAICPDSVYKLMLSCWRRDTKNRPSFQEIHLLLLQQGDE
Procedure: (§1) DDR1 and DDR2 binding assays were performed using Life Technologies LanthaScreen™ Europium Kinase Binding assay. The compounds were incubated with 5 nM DDR1 (Carna Biosciences) or 5 nM DDR2 (Life Technologies) for 1 h at rt in white 384-well OptiPlate (PerkinElmer), containing 20 nM or 10 nM Kinase Tracer 178 respectively and 2 nM Europium labelled anti-GST antibody (Life Technologies) in assay buffer (50 mM HEPES pH 7.5, 10 mM MgCI2, 1 mM EGTA and 0.01% BRIJ35). The ratio of fluorescence emission 665 nm/615 nm after excitation at 340 nm was obtained using the Tecan Spark 20M plate reader. IC50 values were determined in GraphPad Prism 7.0 software, using 4 parameter model: log(inhibitor) vs. response. IC50 values were converted in Ki using the Cheng-Prusoff equation (Ki=IC50/(1+[Tracer]/Kd).

DDR1 = target: T2, DDR1 (Homo sapiens, UniProt Q08345); test: LanthaScreen Europium Kinase Binding assay, DDR1; details: 5 nM DDR1, 20 nM Kinase Tracer 178, 1 h at rt; Ki from IC50 by Cheng-Prusoff; read-out: Ki DDR1
T2 construct: purchased Carna Biosciences
Procedure: as §1

T2 sequence (Q08345 19-913): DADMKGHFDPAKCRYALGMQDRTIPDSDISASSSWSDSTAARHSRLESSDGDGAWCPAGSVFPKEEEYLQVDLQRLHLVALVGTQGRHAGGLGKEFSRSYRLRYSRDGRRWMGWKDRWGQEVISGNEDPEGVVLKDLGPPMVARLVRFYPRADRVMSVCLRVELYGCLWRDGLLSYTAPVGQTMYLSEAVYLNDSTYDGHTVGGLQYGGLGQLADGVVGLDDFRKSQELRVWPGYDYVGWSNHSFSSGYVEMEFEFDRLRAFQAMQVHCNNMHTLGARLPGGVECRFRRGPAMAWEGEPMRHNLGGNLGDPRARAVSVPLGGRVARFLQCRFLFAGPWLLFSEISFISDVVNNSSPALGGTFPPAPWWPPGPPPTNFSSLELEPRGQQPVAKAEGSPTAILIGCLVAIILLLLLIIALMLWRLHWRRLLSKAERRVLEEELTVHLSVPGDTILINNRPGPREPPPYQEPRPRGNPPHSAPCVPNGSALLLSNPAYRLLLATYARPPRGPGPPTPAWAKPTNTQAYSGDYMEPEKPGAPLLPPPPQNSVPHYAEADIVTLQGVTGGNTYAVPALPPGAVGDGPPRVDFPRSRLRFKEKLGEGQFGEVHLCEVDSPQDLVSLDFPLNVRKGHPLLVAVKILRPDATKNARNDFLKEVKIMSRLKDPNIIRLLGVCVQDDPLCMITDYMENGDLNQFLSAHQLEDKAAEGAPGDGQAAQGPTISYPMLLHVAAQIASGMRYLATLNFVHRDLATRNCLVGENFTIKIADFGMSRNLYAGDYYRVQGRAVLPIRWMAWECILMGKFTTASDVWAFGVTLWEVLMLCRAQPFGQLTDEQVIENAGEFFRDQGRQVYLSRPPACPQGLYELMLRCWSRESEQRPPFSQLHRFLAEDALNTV

SMILES: Cc1ccc(C(=O)Nc2cncc(C(F)(F)F)c2)cc1[C@@H]1CN(c2cncnc2)C[C@H]1O (racemic) [Example 105, 3-((3S,4R)-3-(4-hydroxy-1-(pyrimidin-5-yl)pyrrolidin-3-yl)-4-methyl-N-(5-(trifluoromethyl)pyridin-3-yl)benzamide and 3-((3R,4S)-4-hydroxy-1-(pyrimidin-5-yl)pyrrolidin-3-yl)-4-methyl-N-(5-(trifluoromethyl)pyridin-3-yl)benzamide]
Ki (DDR2): 5 to 25 nM
Ki (DDR1): < 5 nM

SMILES: COc1ccc(C(=O)Nc2cncc(C(F)(F)F)c2)cc1C1CCN(c2cncnc2)C1 (racemic) [Example 111, 4-methoxy-3-(1-(pyrimidin-5-yl)pyrrolidin-3-yl)-N-(5-(trifluoromethyl)pyridin-3-yl)benzamide]
Ki (DDR2): 5 to 25 nM
Ki (DDR1): < 5 nM

SMILES: COc1ccc(C(=O)Nc2cncc(C(F)(F)F)c2)cc1C1CCN(c2cncnc2)C1 (single isomer, unassigned) [Example 110, 4-methoxy-3-(1-(pyrimidin-5-yl)pyrrolidin-3-yl)-N-(5-(trifluoromethyl)pyridin-3-yl)benzamide]
Ki (DDR2): 5 to 25 nM
Ki (DDR1): < 5 nM

SMILES: COc1ccc(C(=O)Nc2cncc(C(F)(F)F)c2)cc1C1CCN(c2cnn3cccnc23)C1 (single isomer, unassigned) [Example 115, 4-methoxy-3-(1-(pyrazolo[1,5-a]pyrimidin-3-yl)pyrrolidin-3-yl)-N-(5-(trifluoromethyl)pyridin-3-yl)benzamide]
Ki (DDR2): 5 to 25 nM
Ki (DDR1): < 5 nM

SMILES: O=C(Nc1cncc(C(F)(F)F)c1)c1ccc(OC(F)F)c(C2CCN(c3cncnc3)C2)c1 (single isomer, unassigned) [Example 117, 4-(difluoromethoxy)-3-(1-(pyrimidin-5-yl)pyrrolidin-3-yl)-N-(5-(trifluoromethyl)pyridin-3-yl)benzamide]
Ki (DDR2): < 5 nM
Ki (DDR1): < 5 nM

SMILES: NC(=O)c1cc(N2CCC(c3cc(C(=O)Nc4cncc(C(F)(F)F)c4)ccc3OC(F)F)C2)ccn1 (single isomer, unassigned) [Example 119, 4-(3-(2-(difluoromethoxy)-5-((5-(trifluoromethyl)pyridin-3-yl)carbamoyl)phenyl)pyrrolidin-1-yl)picolinamide]
Ki (DDR2): 5 to 25 nM
Ki (DDR1): < 5 nM

SMILES: Cc1ccc(C(=O)Nc2cncc(C(F)(F)F)c2)cc1C1CN(c2cncnc2)CC1O (single isomer, unassigned) [Example 122, 3-(4-hydroxy-1-(pyrimidin-5-yl)pyrrolidin-3-yl)-4-methyl-N-(5-(trifluoromethyl)pyridin-3-yl)benzamide]
Ki (DDR2): 5 to 25 nM
Ki (DDR1): < 5 nM

SMILES: Cc1ccc(C(=O)Nc2cncc(C(F)(F)F)c2)cc1C1CCN(c2cnn3cccnc23)C1 (stereo in doubt) [Example 90, 4-methyl-3-[(3R)-1-pyrazolo[1,5-a]pyrimidin-3-ylpyrrolidin-3-yl]-N-[5-(trifluoromethyl)-3-pyridyl]benzamide]
Ki (DDR2): 5 to 25 nM
Ki (DDR1): < 5 nM

SMILES: Cc1ccc(C(=O)Nc2cncc(C(F)(F)F)c2)cc1[C@@H]1CCN(c2cncc(C(N)=O)c2)C1 [Example 1, (S)-5-(3-(2-methyl-5-((5-(trifluoromethyl)pyridin-3-yl)carbamoyl)phenyl)pyrrolidin-1-yl)nicotinamide]
Ki (DDR2): < 5 nM
Ki (DDR1): < 5 nM

SMILES: Cc1ccc(C(=O)Nc2cncc(C(F)(F)F)c2)cc1[C@H]1CCN(c2cncc(C(N)=O)c2)C1 [Example 2, (R)-5-(3-(2-methyl-5-((5-(trifluoromethyl)pyridin-3-yl)carbamoyl)phenyl)pyrrolidin-1-yl)nicotinamide]
Ki (DDR2): 5 to 25 nM
Ki (DDR1): < 5 nM

SMILES: Cc1ccc(C(=O)Nc2cc(C(C)(C)C)n(C)n2)cc1[C@@H]1CCN(c2cncc(C(N)=O)c2)C1 [Example 3, (S)-5-(3-(5-((5-(tert-butyl)-1-methyl-1H-pyrazol-3-yl)carbamoyl)-2-methylphenyl)pyrrolidin-1-yl)nicotinamide]
Ki (DDR2): < 5 nM
Ki (DDR1): < 5 nM

SMILES: Cc1ccc(C(=O)Nc2cc(C(C)(C)C(F)(F)F)on2)cc1[C@@H]1CCN(c2cncc(C(N)=O)c2)C1 [Example 4, (S)-5-(3-(2-methyl-5-((5-(1,1,1-trifluoro-2-methylpropan-2-yl)isoxazol-3-yl)carbamoyl)phenyl)pyrrolidin-1-yl)nicotinamide]
Ki (DDR2): < 5 nM
Ki (DDR1): < 5 nM

SMILES: Cc1ccc(C(=O)Nc2cc(C(C)(C)C)nn2C)cc1[C@@H]1CCN(c2cncc(C(N)=O)c2)C1 [Example 5, (S)-5-(3-(5-((3-(tert-butyl)-1-methyl-1H-pyrazol-5-yl)carbamoyl)-2-methylphenyl)pyrrolidin-1-yl)nicotinamide]
Ki (DDR2): 5 to 25 nM
Ki (DDR1): < 5 nM

SMILES: Cc1ccc(C(=O)Nc2cc(C(C)(C)C)no2)cc1[C@@H]1CCN(c2cncc(C(N)=O)c2)C1 [Example 6, (S)-5-(3-(5-((3-(tert-butyl)isoxazol-5-yl)carbamoyl)-2-methylphenyl)pyrrolidin-1-yl)nicotinamide]
Ki (DDR2): < 5 nM
Ki (DDR1): < 5 nM

SMILES: Cc1ccc(C(=O)Nc2cc(OC(F)(F)F)ccn2)cc1[C@@H]1CCN(c2cncc(C(N)=O)c2)C1 [Example 9, (S)-5-(3-(2-methyl-5-((4-(trifluoromethoxy)pyridin-2-yl)carbamoyl)phenyl)pyrrolidin-1-yl)nicotinamide]
Ki (DDR2): < 5 nM
Ki (DDR1): < 5 nM

Next, values leading:

Ki (DDR2): 5 to 25 nM
Ki (DDR1): < 5 nM
SMILES: Cc1ccc(C(=O)Nc2cncc(C(F)(F)F)c2)cc1[C@@H]1CN(c2cncnc2)C[C@H]1CO (racemic) [Example 104, 3-((3R,4S)-3-(4-(hydroxymethyl)-1-(pyrimidin-5-yl)pyrrolidin-3-yl)-4-methyl-N-(5-(trifluoromethyl)pyridin-3-yl)benzamide and 3-((3S,4R)-3-(4-(hydroxymethyl)-1-(pyrimidin-5-yl)pyrrolidin-3-yl)-4-methyl-N-(5-(trifluoromethyl)pyridin-3-yl)benzamide]

Ki (DDR2): < 5 nM
Ki (DDR1): < 5 nM
SMILES: COc1ccc(C(=O)Nc2cncc(C(F)(F)F)c2)cc1C1CCN(c2cncnc2)C1 (single isomer, unassigned) [Example 109, 4-methoxy-3-(1-(pyrimidin-5-yl)pyrrolidin-3-yl)-N-(5-(trifluoromethyl)pyridin-3-yl)benzamide]

Ki (DDR2): 5 to 25 nM
Ki (DDR1): < 5 nM
SMILES: COc1ccc(C(=O)Nc2cncc(C(F)(F)F)c2)cc1C1CCN(c2cnn3cccnc23)C1 (single isomer, unassigned) [Example 114, 4-methoxy-3-(1-(pyrazolo[1,5-a]pyrimidin-3-yl)pyrrolidin-3-yl)-N-(5-(trifluoromethyl)pyridin-3-yl)benzamide]

Ki (DDR2): < 5 nM
Ki (DDR1): < 5 nM
SMILES: O=C(Nc1cncc(C(F)(F)F)c1)c1ccc(OC(F)F)c(C2CCN(c3cncnc3)C2)c1 (single isomer, unassigned) [Example 116, 4-(difluoromethoxy)-3-(1-(pyrimidin-5-yl)pyrrolidin-3-yl)-N-(5-(trifluoromethyl)pyridin-3-yl)benzamide]

Ki (DDR2): 5 to 25 nM
Ki (DDR1): < 5 nM
SMILES: NC(=O)c1cc(N2CCC(c3cc(C(=O)Nc4cncc(C(F)(F)F)c4)ccc3OC(F)F)C2)ccn1 (single isomer, unassigned) [Example 118, 4-(3-(2-(difluoromethoxy)-5-((5-(trifluoromethyl)pyridin-3-yl)carbamoyl)phenyl)pyrrolidin-1-yl)picolinamide]

Ki (DDR2): < 5 nM
Ki (DDR1): < 5 nM
SMILES: O=C(Nc1cncc(C(F)(F)F)c1)c1ccc(C(F)F)c(C2CCN(c3cncnc3)C2)c1 (single isomer, unassigned) [Example 121]

Ki (DDR2): 5 to 25 nM
Ki (DDR1): < 5 nM
SMILES: Cc1ccc(C(=O)Nc2cc(C(C)(C)C)no2)cc1[C@@H]1CCN(c2cncc(C#N)c2)C1 [Example 7, (S)—N-(3-(tert-butyl)isoxazol-5-yl)-3-(1-(5-cyanopyridin-3-yl)pyrrolidin-3-yl)-4-methylbenzamide]

Ki (DDR2): 5 to 25 nM
Ki (DDR1): < 5 nM
SMILES: Cc1ccc(C(=O)Nc2cc(C(F)(F)F)ncn2)cc1[C@@H]1CCN(c2cncc(C#N)c2)C1 [Example 8, (S)-3-(1-(5-cyanopyridin-3-yl)pyrrolidin-3-yl)-4-methyl-N-(6-(trifluoromethyl)pyrimidin-4-yl)benzamide]
